Results on 16 molecules are retold here after BindingDB's records for doi:10.1021/cc0501561 (East China Univesity of Science and Technology, 2006).

For orientation: Kd means the free concentration of one partner at which half of the binding sites on the other are occupied at equilibrium, for simple one-to-one binding. A lower Kd goes with higher affinity. By IC50 is commonly meant the concentration that gives 50% inhibition. A high value points to weaker potency in that assay.

The target of the experiment is Peptidyl-prolyl cis-trans isomerase A (Homo sapiens, UniProt P62937). The experiment can be described thus: Surface Plasmon Resonance Assay. The conditions noted are these: pH 7.4; 25 °C. How it is done: CypA in vitro were determined by employing surface plasmon resonance (SPR) technology.
Peptidyl-prolyl cis-trans isomerase A, sequence (P62937 whole entry): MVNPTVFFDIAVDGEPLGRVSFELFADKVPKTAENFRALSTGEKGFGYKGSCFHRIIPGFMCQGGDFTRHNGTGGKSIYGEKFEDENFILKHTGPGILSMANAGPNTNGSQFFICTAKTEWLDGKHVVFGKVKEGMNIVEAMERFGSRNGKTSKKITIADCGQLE

`CC(C)(C)NC(=O)[C@@H]1Cc2ccccc2CN1Cc1cc(-c2cccc(Cl)c2)nc2ccccc12` [CypA Inhibitor, 1a] registered a Kd of 24.3 µM.
The same measure, in the same setting: in the case of `CC(C)(C)NC(=O)[C@@H]1Cc2ccccc2CN1Cc1cc(-c2ccc3ccccc3c2)nc2ccccc12` [CypA Inhibitor, 1b] it was 3.07 µM.
Still for that read-out and setting: in the case of `c1ccc2cc(-c3cc(CN4CCCCC4)c4ccccc4n3)ccc2c1` [CypA Inhibitor, 1c] it was 0.212 µM; in that of `CCOC(=O)[C@@H]1CCCN(Cc2cc(-c3ccc4ccccc4c3)nc3ccccc23)C1` [CypA Inhibitor, 1d], 17.2 µM; in that of `CCN(CC)C(=O)CNCc1cc(-c2ccc3ccccc3c2)nc2ccccc12` [CypA Inhibitor, 1e], 3.41 µM.
Still for that read-out and setting: as for `CC(C)CCOC(=O)Nc1cc(-c2ccc3ccccc3c2)nc2ccccc12` [CypA Inhibitor, 2a], the figure is 0.0762 µM.
As to `CCOC(=O)[C@H]1CCCN(C(=O)Nc2cc(-c3cccc(Cl)c3)nc3ccccc23)C1` [CypA Inhibitor, 2b], binding was put at a Kd of 28.8 µM.
The same measure, in the same setting: as for `COC(=O)c1cc(C(=O)Nc2cc(-c3cccc(Cl)c3)nc3ccccc23)ccc1NCc1ccccc1` [CypA Inhibitor, 3a], the figure is 8.18 µM; as for `COC(=O)c1cc(C(=O)Nc2ccc(S(=O)(=O)Nc3onc(C)c3C)cc2)ccc1NCc1ccccc1` [CypA Inhibitor, 3b], 10.8 µM.
On to `COC(=O)c1cc(NC(=O)c2ccc3nc(-c4ccco4)c(-c4ccco4)nc3c2)ccc1NCc1ccccc1` [CypA Inhibitor, 4a], for which the IC50 was determined as 250 nM and the Kd is 8.19 µM.
The molecule `Cc1noc(NS(=O)(=O)c2ccc(NC(=O)c3ccc4nc(-c5ccco5)c(-c5ccco5)nc4c3)cc2)c1C` [CypA Inhibitor, 4b] displayed a Kd of 27.3 µM.
Molecule `Cc1ccnc(NS(=O)(=O)c2ccc(NC(=O)c3ccc4nc(-c5ccco5)c(-c5ccco5)nc4c3)cc2)n1` [CypA Inhibitor, 4c] registered an IC50 of 6430 nM and a Kd of 41 µM.
The molecule `Cc1cc(C)nc(NS(=O)(=O)c2ccc(NC(=O)c3ccc4nc(-c5ccco5)c(-c5ccco5)nc4c3)cc2)n1` [CypA Inhibitor, 4d] registered a Kd of 30.8 µM.
In turn, `Cc1cc(NS(=O)(=O)c2ccc(NC(=O)c3ccc4nc(-c5ccco5)c(-c5ccco5)nc4c3)cc2)no1` [CypA Inhibitor, 4e] had an IC50 of 2860 nM and a dissociation constant Kd of 38.7 µM.
As to `O=C(Nc1ccc(S(=O)(=O)Nc2ncccn2)cc1)c1ccc2nc(-c3ccco3)c(-c3ccco3)nc2c1` [CypA Inhibitor, 4f], the concentration for half-maximal inhibition (IC50) worked out at 960 nM and the equilibrium dissociation constant (Kd) came to 22.8 µM.
Taken in the same sequence, the figures for `O=C(Nc1ccc(S(=O)(=O)Nc2cnc3ccccc3n2)cc1)c1ccc2nc(-c3ccco3)c(-c3ccco3)nc2c1` [CypA Inhibitor, 4g] were 780 nM and 35.3 µM.
